This passage reports EC50 and ED50 results from ChEMBL document CHEMBL1131885, “Acyclic structural variants of growth hormone secretagogue L-692,429” (1999).

Assay [1] is filed under the species Rattus norvegicus. Kind of assay: In vitro growth hormone release in rat pituitary cells assay was determined. The format is functional. The conditions noted are these: Pituitary gland cell, read-out: ED50 (the source's name).
Assay [2] is filed under the species Rattus norvegicus. Kind of assay: In vitro growth hormone release in rat pituitary cells assay was determined; IA means inactive. Type of assay: functional, cell-based. The note with it: Pituitary gland cell.

Each structure is given as a SMILES string. Activity calls are given as the source filed them. No cut-off for these calls is given here.

`CN(Cc1ccc(-c2ccccc2-c2nn[nH]n2)cc1)C(=O)[C@@H](CCc1ccccc1)NC(=O)CC(C)(C)N`: in the assay filed under Rattus norvegicus [1], the EC50 was greater than 300 nM.

Turning to `C[C@@H](NC(=O)CC(C)(C)N)C(=O)NCc1ccc(-c2ccccc2-c2nn[nH]n2)cc1`, the ED50 entry in the assay listed under Rattus norvegicus [2] is “inactive”.

On to `CN(Cc1ccc(-c2ccccc2-c2nn[nH]n2)cc1)C(=O)[C@@H](CCc1ccccc1)NC(=O)C(C)(C)N`, for which the EC50 in the assay listed under Rattus norvegicus [1] worked out at 30 nM.

`CN(C(=O)[C@@H](CCc1ccccc1)NC(=O)C(C)(C)N)c1ccc(-c2ccccc2-c2nn[nH]n2)cc1`: the EC50 in the assay filed under Rattus norvegicus [1] was found to be 300 nM.

In the case of `CC(C)(N)CC(=O)N[C@H](Cc1c[nH]c2ccccc12)C(=O)NCc1ccc(-c2ccccc2-c2nn[nH]n2)cc1`, the EC50 in the assay listed under Rattus norvegicus [1] stood at 400 nM.

As to `CC(C)(N)CC(=O)N[C@H](Cc1ccccc1)C(=O)NCc1ccc(-c2ccccc2-c2nn[nH]n2)cc1`, the EC50 in the assay filed under Rattus norvegicus [1] was found to be 11000 nM.

For the molecule `CCN(Cc1ccc(-c2ccccc2-c2nn[nH]n2)cc1)C(=O)[C@@H](CCc1ccccc1)NC(=O)C(C)(C)N`, in the assay filed under Rattus norvegicus [1], the EC50 was greater than 500 nM.

In the case of `CC(C)N(Cc1ccc(-c2ccccc2-c2nn[nH]n2)cc1)C(=O)[C@@H](CCc1ccccc1)NC(=O)C(C)(C)N`, the EC50 in the assay listed under Rattus norvegicus [1] is greater than 500 nM.

Turning to `CN(Cc1ccc(-c2ccccc2-c2nn[nH]n2)cc1)C(=O)[C@@H](CCc1ccccc1)NC(=O)CCC(C)(C)N`, in the assay listed under Rattus norvegicus [1], the EC50 is greater than 300 nM.

On to `CC[C@@H](NC(=O)CC(C)(C)N)C(=O)N(Cc1ccc(-c2ccccc2-c2nn[nH]n2)cc1)c1ccccc1`, for which the EC50 in the assay listed under Rattus norvegicus [1] worked out at 11000 nM.

For `CC(C)(N)CC(=O)N[C@H](COCc1ccccc1)C(=O)NCc1ccc(-c2ccccc2-c2nn[nH]n2)cc1`, the EC50 in the assay listed under Rattus norvegicus [1] was greater than 1000 nM.

Consider `CC(C)(N)CC(=O)NCC(=O)NCc1ccc(-c2ccccc2-c2nn[nH]n2)cc1`, for which the ED50 result in the assay filed under Rattus norvegicus [2] was “inactive”.

With `CC(C)(N)CC(=O)N[C@H](CCc1ccccc1)C(=O)NCc1ccc(-c2ccccc2-c2nn[nH]n2)cc1`, the EC50 in the assay listed under Rattus norvegicus [1] amounted to 200 nM.

For the molecule `CC(C)(N)CC(=O)N[C@@H]1CCc2ccccc2N(Cc2ccc(-c3ccccc3-c3nn[nH]n3)cc2)C1=O`, the EC50 in the assay listed under Rattus norvegicus [1] was determined as 60 nM.
